Laboratory results from PubChem BioAssay AID2060504 (Molecular Pharmacology Branch, DTP, NCI, 2025).
Values joined by “and” are separate entries in the source; they are usually repeats but may differ in a detail not shown here. Equal entries are not always repeated.

Test system: 636577-100-R-J1-PDC complex spheroid viability
Assay: Anticancer human tumor 636577-100-R-J1-PDC patient-derived endometrial adenocarcinoma cell line growth inhibition [GQUAD]
Conditions: for viability, T/C: stronger effect = lower value
Excerpt: DNA G-quadruplex Stabilizer Agents in Combinations in Complex Spheroids
A high-throughput screen of multi-cell type tumor spheroids was designed to identify active combinations of DNA G-quadruplex stabilizer agents and targeted small molecules. Complex spheroids include a stromal component modeled by human endothelial cells (HUVEC) and fibroblasts modeled by human mesenchymal stem cells (MSCs). The concentration ranges selected for each drug and investigational agent were based upon clinically achievable concentrations if the clinical Cmax of the agent was known.
Compounds. The drugs and investigational agents: pidnarulex (CX-5461; NSC782164), APTO-253 (NSC789042), BRACO-19 (NSC847499), peposertib (NSC802822), ceralasertib (NSC780249), elimusertib (NSC800525), camonsertib (NSC841442), AZD-1390 (NSC803789), olaparib (NSC753686), talazoparib (NSC767125), ART-558 (NSC835418), sotorasib (NSC818433), MRTX-1133 (NSC836407), SN-38 (NSC673596), topotecan (NSC609699), etoposide (NSC141540), doxorubicin (NSC123127), gemcitabine (NSC613327), 5-fluorouracil (NSC19893), paclitaxel (NSC125973), vemurafenib (NSC761431), panobinostat (NSC761190), R-306465 (JNJ-16241199; NSC773264), adavosertib (NSC754352), TP-3654 (NSC805149), carboplatin (NSC241240), KSQ-4279 (NSC840948), and staurosporine (NSC755774) were obtained from the National Cancer Institute (NCI) Developmental Therapeutics Program Chemical Repository (34). The FDA-approved anticancer drug set is available from the NCI Developmental Therapeutics Program. […] The stock solutions were prepared in dimethyl sulfoxide (DMSO, Sigma-Aldrich, St. Louis, MO, cat. D2650) at 800-fold the tested concentration and stored at -70 degrees C prior to their use. All drugs and investigational agents were tested over a range starting from a high concentration at or near the clinical Cmax and decreasing in half-log increments. If the clinical Cmax for an agent had not been determined, the highest concentration tested was 10 microM.
2.3 Cell Culture. All cells were maintained in an incubator at 37 degrees C and 5% CO2 with 95% humidity. The PDC lines were cultured according to standard operating procedures established by the NCI PDMR. All PDCs were thawed and cultured in Matrigel-coated flasks prepared with a working solution of 1X Ham's F-12 nutrient mix, without supplementation (Invitrogen, cat. 11765054), 100 U/mL penicillin-streptomycin (Invitrogen, cat. 15140122), and 2.5% Matrigel (Corning Inc., cat. 354248) for the first three passages. The 857933-349-R-J2-PDC line was cultured in 6C/Colon 1B media, which includes advanced DMEM/F-12 (Thermo Fisher Scientific, cat. 12634028), 10 mM HEPES (Thermo Fisher Scientific, cat. 15630080), 1X GlutaMAX supplement (Thermo Fisher Scientific, cat. 35050061), 0.1 mg/mL primocin (InvivoGen, cat. ant-pm-2), 10% defined fetal bovine serum, heat inactivated (HyClone Laboratories Inc., cat. SH30070.03HI), 50% L-WRN conditioned media (ATCC, cat. CRL-3276), 1.25 mM N-Acetyl-L-cysteine (Sigma-Aldrich, cat. A9165), 10 mM nicotinamide (Sigma-Aldrich, cat. N0636), 1X B-27 supplement (Thermo Fisher Scientific, cat. 17504044), 1X N-2 supplement (Thermo Fisher Scientific, cat. 17502048), 10 microM Y-27632 dihydrochloride (Tocris Bioscience, cat. 1254), and 50 ng/mL human EGF recombinant protein (Thermo Fisher Scientific, cat. PHG0311). The 485176-168-R4-J1-PDC line was cultured in Panc media, which includes all 6C/Colon 1B media components plus 100 ng/mL human FGF-10 (Thermo Fisher Scientific, cat. 100-26), 500 nM SB-431542 (Selleckchem, cat. S1067), and gastrin (Tocris, cat. 3006).
[…]

[1] = curve of first compound, second compound 0.0316 µM
[2] = curve of first compound, second compound 0.1 µM
[3] = curve of first compound, second compound 0.316 µM
[4] = curve of first compound, second compound 1 µM
[5] = curve of first compound, second compound 3.16 µM
[6] = curve of first compound, second compound 10 µM
[7] = second compound 0.0316 µM, first compound 0.0316 µM
[8] = second compound 0.0316 µM, first compound 0.1 µM
[9] = second compound 0.0316 µM, first compound 0.316 µM
[10] = second compound 0.0316 µM, first compound 1 µM
[11] = second compound 0.0316 µM, first compound 3.16 µM
[12] = second compound 0.0316 µM, first compound 10 µM
[13] = second compound 0.1 µM, first compound 0.0316 µM
[14] = second compound 0.1 µM, first compound 0.1 µM
[15] = second compound 0.1 µM, first compound 0.316 µM
[16] = second compound 0.1 µM, first compound 1 µM
[17] = second compound 0.1 µM, first compound 3.16 µM
[18] = second compound 0.1 µM, first compound 10 µM
[19] = second compound 0.316 µM, first compound 0.0316 µM
[20] = second compound 0.316 µM, first compound 0.1 µM
[21] = second compound 0.316 µM, first compound 0.316 µM
[22] = second compound 0.316 µM, first compound 1 µM
[23] = second compound 0.316 µM, first compound 3.16 µM
[24] = second compound 0.316 µM, first compound 10 µM
[25] = second compound 1 µM, first compound 0.0316 µM
[26] = second compound 1 µM, first compound 0.1 µM
[27] = second compound 1 µM, first compound 0.316 µM
[28] = second compound 1 µM, first compound 1 µM
[29] = second compound 1 µM, first compound 3.16 µM
[30] = second compound 1 µM, first compound 10 µM
[31] = second compound 3.16 µM, first compound 0.0316 µM
[32] = second compound 3.16 µM, first compound 0.1 µM
[33] = second compound 3.16 µM, first compound 0.316 µM
[34] = second compound 3.16 µM, first compound 1 µM
[35] = second compound 3.16 µM, first compound 3.16 µM
[36] = second compound 3.16 µM, first compound 10 µM
[37] = second compound 10 µM, first compound 0.0316 µM
[38] = second compound 10 µM, first compound 0.1 µM
[39] = second compound 10 µM, first compound 0.316 µM
[40] = second compound 10 µM, first compound 1 µM
[41] = second compound 10 µM, first compound 3.16 µM
[42] = second compound 10 µM, first compound 10 µM
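Further: viability read after seven days of drug exposure.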
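Wherever viability, T/C is given: luminescence signal used as a proxy for viable cells; 100% = DMSO vehicle control wells.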

## C=CCn1c(=O)c2cnc(Nc3ccc(N4CCN(C)CC4)cc3)nc2n1-c1cccc(C(C)(C)O)n1 + Cc1[nH]c2ccc(F)cc2c1-c1nc2c3cccnc3c3ncccc3c2[nH]1
[1]
  IC50: 825 nM
[2]
  IC50: 746 nM
[3]
  IC50: 580 nM
[4]
  IC50: 202 nM
[5]
  IC50: < 31.6 nM
[6]
  IC50: < 31.6 nM
[7]
  viability, T/C: 113%
[8]
  viability, T/C: 83.9%
[9]
  viability, T/C: 94%
[10]
  viability, T/C: 41%
[11]
  viability, T/C: 16.9%
[12]
  viability, T/C: 12.4%
[13]
  viability, T/C: 103%
[14]
  viability, T/C: 78%
[15]
  viability, T/C: 78.4%
[16]
  viability, T/C: 40.6%
[17]
  viability, T/C: 19.6%
[18]
  viability, T/C: 12.5%
[19]
  viability, T/C: 83%
[20]
  viability, T/C: 78.5%
[21]
  viability, T/C: 65%
[22]
  viability, T/C: 36.9%
[23]
  viability, T/C: 17.4%
[24]
  viability, T/C: 14%
[25]
  viability, T/C: 83.9%
[26]
  viability, T/C: 45.3%
[27]
  viability, T/C: 58.1%
[28]
  viability, T/C: 29.8%
[29]
  viability, T/C: 16.1%
[30]
  viability, T/C: 13.6%
[31]
  viability, T/C: 25.6%
[32]
  viability, T/C: 21.4%
[33]
  viability, T/C: 23.6%
[34]
  viability, T/C: 19.1%
[35]
  viability, T/C: 17.5%
[36]
  viability, T/C: 16.6%
[37]
  viability, T/C: 35%
[38]
  viability, T/C: 28.6%
[39]
  viability, T/C: 29.3%
[40]
  viability, T/C: 20.1%
[41]
  viability, T/C: 20.9%
[42]
  viability, T/C: 14.5%

## O=C(c1cc(Cc2n[nH]c(=O)c3ccccc23)ccc1F)N1CCN(C(=O)C2CC2)CC1
Compound 0.0316 µM
  viability, T/C: 91.1% and 68.5%
Compound 0.1 µM
  viability, T/C: 89.5% and 65.9%
Compound 0.316 µM
  viability, T/C: 96.8% and 82.5%
Compound 1 µM
  viability, T/C: 62.5% and 63.3%
Compound 3.16 µM
  viability, T/C: 56.2% and 45.9%
Compound 10 µM
  viability, T/C: 37.6% and 29%
Curve of compound
  IC50: 2510 nM and 2430 nM

## CC1COCCN1c1cc(C2(S(C)(=N)=O)CC2)nc(-c2ccnc3[nH]ccc23)n1 (stereo not drawn)
Compound 0.0316 µM
  viability, T/C: 90.3% and 97.2% and 58.2%
Compound 0.1 µM
  viability, T/C: 91.5% and 90.5% and 90.6%
Compound 0.316 µM
  viability, T/C: 93% and 90.3% and 73.6%
Compound 1 µM
  viability, T/C: 50.8% and 49.6% and 41.9%
Compound 3.16 µM
  viability, T/C: 22.6% and 22.4% and 54.3%
Compound 10 µM
  viability, T/C: 14.2% and 12.7% and 14.7%
Curve of compound
  IC50: 1040 nM and 2200 nM

## C=CCn1c(=O)c2cnc(Nc3ccc(N4CCN(C)CC4)cc3)nc2n1-c1cccc(C(C)(C)O)n1 + Cc1cnc(CNC(=O)c2c(=O)c3ccc(N4CCCN(C)CC4)nc3n3c2sc2ccccc23)cn1
[1]
  IC50: < 31.6 nM
[2]
  IC50: < 31.6 nM
[3]
  IC50: < 31.6 nM
[4]
  IC50: < 31.6 nM
[5]
  IC50: < 31.6 nM
[6]
  IC50: < 31.6 nM
[7]
  viability, T/C: 49.8%
[8]
  viability, T/C: 40.3%
[9]
  viability, T/C: 47.3%
[10]
  viability, T/C: 28.2%
[11]
  viability, T/C: 22.4%
[12]
  viability, T/C: 12.1%
[13]
  viability, T/C: 29.4%
[14]
  viability, T/C: 29%
[15]
  viability, T/C: 28.7%
[16]
  viability, T/C: 22.3%
[17]
  viability, T/C: 21.3%
[18]
  viability, T/C: 14.2%
[19]
  viability, T/C: 27.4%
[20]
  viability, T/C: 26.2%
[21]
  viability, T/C: 28.2%
[22]
  viability, T/C: 24.2%
[23]
  viability, T/C: 24.8%
[24]
  viability, T/C: 15.1%
[25]
  viability, T/C: 19.4%
[26]
  viability, T/C: 19.5%
[27]
  viability, T/C: 22.5%
[28]
  viability, T/C: 24.5%
[29]
  viability, T/C: 23.4%
[30]
  viability, T/C: 14.3%
[31]
  viability, T/C: 18.1%
[32]
  viability, T/C: 22.3%
[33]
  viability, T/C: 25.9%
[34]
  viability, T/C: 23.7%
[35]
  viability, T/C: 21.1%
[36]
  viability, T/C: 18.4%
[37]
  viability, T/C: 23%
[38]
  viability, T/C: 22.2%
[39]
  viability, T/C: 24.2%
[40]
  viability, T/C: 19.1%
[41]
  viability, T/C: 25.2%
[42]
  viability, T/C: 23.1%
